Experimental data: ChEMBL document CHEMBL1149783, “New stereoselective titanium reductive amination synthesis of 3-amino and polyaminosterol derivatives possessing antimicrobial activities” (2008)
In brackets after ≈: the same amount, converted by molar mass.

Columns and labels:
Assay type in all cases: functional
Escherichia coli = assay: Antibacterial activity against Escherichia coli CIP 54127 by broth microdilution method
Staphylococcus aureus = assay: Antibacterial activity against Staphylococcus aureus CIP 4.83 by broth microdilution method
Candida albicans = assay: Antifungal activity against Candida albicans CIP 1180-79 by broth microdilution method
Saccharomyces cerevisiae = assay: Antifungal activity against Saccharomyces cerevisiae CIP 28383 by broth microdilution method
Enterococcus faecalis = assay: Antibacterial activity against Enterococcus faecalis CIP 103015 by broth microdilution method

Row | Compound | MIC (Escherichia coli) [µg/mL] | MIC (Staphylococcus aureus) [µg/mL] | MIC (Candida albicans) [µg/mL] | MIC (Saccharomyces cerevisiae) [µg/mL] | MIC (Enterococcus faecalis) [µg/mL]
1 | CC(C)CCCC(C)C1CCC2C3CCC4CC(NCCCNCCCCNCCCN)CCC4(C)C3CCC12C (stereo not drawn) | > 50 | 3.12 (≈ 5.45 µM) | 50 (≈ 87.3 µM) | 6.25 (≈ 10.9 µM) | 12.5 (≈ 21.8 µM)
2 | CNC1CCC2(C)C(CCC3C2CCC2(C)C(C(C)CCCC(C)C)CCC32)C1 (stereo not drawn) | > 50 | 6.25 (≈ 15.6 µM) | 12.5 (≈ 31.1 µM) | 12.5 (≈ 31.1 µM) | 6.25 (≈ 15.6 µM)
3 | CC(C)CCCC(C)C1CCC2C3CCC4CC(N)CCC4(C)C3CCC12C (stereo not drawn) | > 50 | > 50 | 50 (≈ 129 µM) | > 50 | 50 (≈ 129 µM)
4 | CC(C)CCCC(C)C1CCC2C3CCC4CC(NCCCCCCCN)CCC4(C)C3CCC12C (stereo not drawn) | > 50 | > 50 | > 50 | > 50 | > 50
5 | CC(C)CCC[C@@H](C)[C@H]1CC[C@H]2[C@@H]3CC=C4C[C@@H](NCCCNCCCCNCCCN)CC[C@]4(C)[C@H]3CC[C@]12C | > 50 | 6.25 (≈ 10.9 µM) | > 50 | > 50 | > 50
6 | CC(C)CCC[C@@H](C)[C@H]1CC[C@H]2[C@@H]3CC[C@H]4C[C@@H](NCCCN)CC[C@]4(C)[C@H]3CC[C@]12C | > 50 | > 50 | > 50 | > 50 | > 50
7 | CC(C)CCC[C@@H](C)[C@H]1CC[C@H]2[C@@H]3CC=C4C[C@@H](NCCN)CC[C@]4(C)[C@H]3CC[C@]12C | 12.5 (≈ 29.2 µM) | 12.5 (≈ 29.2 µM) | > 50 | > 50 | 25 (≈ 58.3 µM)
8 | CC(C)CCC[C@@H](C)[C@H]1CC[C@H]2[C@@H]3CC=C4C[C@@H](NCCCCN)CC[C@]4(C)[C@H]3CC[C@]12C | 6.25 (≈ 13.7 µM) | 1.56 (≈ 3.42 µM) | > 50 | > 50 | 6.25 (≈ 13.7 µM)
9 | CC(C)CCC[C@@H](C)[C@H]1CC[C@H]2[C@@H]3CC[C@H]4C[C@@H](NCCCCN)CC[C@]4(C)[C@H]3CC[C@]12C | > 50 | 12.5 (≈ 27.2 µM) | 25 (≈ 54.5 µM) | 50 (≈ 109 µM) | > 50
10 | CC(C)CCC[C@@H](C)[C@H]1CC[C@H]2[C@@H]3CC[C@H]4C[C@@H](NCCN)CC[C@]4(C)[C@H]3CC[C@]12C | > 50 | 12.5 (≈ 29 µM) | > 50 | 50 (≈ 116 µM) | > 50
11 | CC(C)CCC[C@@H](C)[C@H]1CC[C@H]2[C@@H]3CC[C@H]4C[C@@H](NCCCCCCN)CC[C@]4(C)[C@H]3CC[C@]12C | > 50 | > 50 | > 50 | > 50 | > 50
12 | CC(C)CCC[C@@H](C)[C@H]1CC[C@H]2[C@@H]3CCC4=C[C@@H](NCCCCCCCCCCCCN)CC[C@]4(C)[C@H]3CC[C@]12C | > 50 | > 50 | > 50 | > 50 | > 50
13 | CC(C)CCC[C@@H](C)[C@H]1CC[C@H]2[C@@H]3CCC4=C[C@@H](NCCCCCCCCCCN)CC[C@]4(C)[C@H]3CC[C@]12C | > 50 | > 50 | > 50 | > 50 | > 50
14 | CC(C)CCC[C@@H](C)[C@H]1CC[C@H]2[C@@H]3CCC4=C[C@@H](NCCCNCCCCNCCCN)CC[C@]4(C)[C@H]3CC[C@]12C | 50 (≈ 87.6 µM) | 6.25 (≈ 10.9 µM) | 50 (≈ 87.6 µM) | > 50 | > 50
15 | CC(C)CCC[C@@H](C)[C@H]1CC[C@H]2[C@@H]3CC=C4C[C@@H](NCCCN)CC[C@]4(C)[C@H]3CC[C@]12C | 6.25 (≈ 14.1 µM) | 6.25 (≈ 14.1 µM) | > 50 | > 50 | 6.25 (≈ 14.1 µM)
16 | CN[C@H]1CC[C@@]2(C)C(=CC[C@H]3[C@@H]4CC[C@H]([C@H](C)CCCC(C)C)[C@@]4(C)CC[C@@H]32)C1 | > 50 | 6.25 (≈ 15.6 µM) | > 50 | 3.12 (≈ 7.82 µM) | 6.25 (≈ 15.6 µM)
17 | CC(C)CCC[C@@H](C)[C@H]1CC[C@H]2[C@@H]3CC[C@H]4C[C@@H](NCCCCCN)CC[C@]4(C)[C@H]3CC[C@]12C | > 50 | 6.25 (≈ 13.2 µM) | 50 (≈ 106 µM) | 25 (≈ 52.9 µM) | 50 (≈ 106 µM)
18 | CC(C)[C@@H](CC[C@@H](C)[C@H]1CC[C@H]2[C@@H]3[C@H](O)C[C@H]4C[C@@H](NCCCNCCCCNCCCN)CC[C@]4(C)[C@H]3CC[C@]12C)OS(=O)(=O)O.Cl.Cl.Cl.Cl [TRODUSQUEMINE HYDROCHLORIDE] | 4 | 1 | 4 | – | –

Now from value to compound:

Row | MIC (Escherichia coli) [µg/mL] | MIC (Staphylococcus aureus) [µg/mL] | MIC (Candida albicans) [µg/mL] | MIC (Saccharomyces cerevisiae) [µg/mL] | MIC (Enterococcus faecalis) [µg/mL] | Compound
19 | > 50 | > 50 | > 50 | > 50 | > 50 | CC(C)CCC[C@@H](C)[C@H]1CC[C@H]2[C@@H]3CCC4=C[C@@H](NCCCCCCCCCN)CC[C@]4(C)[C@H]3CC[C@]12C
20 | > 50 | > 50 | > 50 | > 50 | > 50 | CC(C)CCC[C@@H](C)[C@H]1CC[C@H]2[C@@H]3CCC4=C[C@@H](NCCCCCCN)CC[C@]4(C)[C@H]3CC[C@]12C
21 | > 50 | > 50 | > 50 | > 50 | > 50 | CC(C)CCC[C@@H](C)[C@H]1CC[C@H]2[C@@H]3CCC4=C[C@@H](NCCCCCCCN)CC[C@]4(C)[C@H]3CC[C@]12C
22 | > 50 | 1.56 (≈ 3.9 µM) | 12.5 (≈ 31.3 µM) | 12.5 (≈ 31.3 µM) | 25 (≈ 62.5 µM) | CN[C@@H]1C=C2CC[C@H]3[C@@H]4CC[C@H]([C@H](C)CCCC(C)C)[C@@]4(C)CC[C@@H]3[C@@]2(C)CC1
23 | > 50 | 12.5 (≈ 29.2 µM) | > 50 | > 50 | > 50 | CC(C)CCC[C@@H](C)[C@H]1CC[C@H]2[C@@H]3CCC4=C[C@@H](NCCN)CC[C@]4(C)[C@H]3CC[C@]12C
24 | > 50 | 6.25 (≈ 13.3 µM) | > 50 | > 50 | 6.25 (≈ 13.3 µM) | CC(C)CCC[C@@H](C)[C@H]1CC[C@H]2[C@@H]3CCC4=C[C@@H](NCCCCCN)CC[C@]4(C)[C@H]3CC[C@]12C
25 | > 50 | 12.5 (≈ 28.2 µM) | 25 (≈ 56.5 µM) | > 50 | > 50 | CC(C)CCC[C@@H](C)[C@H]1CC[C@H]2[C@@H]3CCC4=C[C@@H](NCCCN)CC[C@]4(C)[C@H]3CC[C@]12C
26 | 25 (≈ 54.7 µM) | 6.25 (≈ 13.7 µM) | 6.25 (≈ 13.7 µM) | 12.5 (≈ 27.4 µM) | 6.25 (≈ 13.7 µM) | CC(C)CCC[C@@H](C)[C@H]1CC[C@H]2[C@@H]3CCC4=C[C@@H](NCCCCN)CC[C@]4(C)[C@H]3CC[C@]12C
27 | > 50 | > 50 | > 50 | > 50 | > 50 | CC(C)CCC[C@@H](C)[C@H]1CC[C@H]2[C@@H]3CCC4=C[C@@H](NCCCCCCCCN)CC[C@]4(C)[C@H]3CC[C@]12C
